In article PMC7870638, “Toxicity of anticancer drugs in human placental tissue explants and trophoblast cell lines” (Archives of Toxicology, 2020):

Legend:
[1] = tested on: JEG-3, BeWo, and syncytialised BeWo cells; test: MTT assay, cell viability in all three trophoblast cell types; format: cell-based, human
Protocol: Two human choriocarcinoma-derived placental cell lines were used: JEG3 and BeWo (ATCC catalog numbers HTB-36 and CCL-98, respectively). JEG3 cells were cultured in DMEM and Bewo cells in Ham’s F-12 K medium, supplemented with 10% fetal calf serum and 1% penicillin and streptomycin under a humidified 5% CO2/95% air atmosphere at 37 °C. Cells were passaged (JEG3: 1:10 twice a week; BeWo: 1:3 once a week) after trypsinization with 0.05% Trypsin–EDTA when cells reached approximately 80% confluency. For BeWo cells, the medium was renewed 3 times a week. To create syncytialised BeWo cells, regular BeWo cells were treated with 50 μM forskolin (Sigma-Aldrich, St. Louis, MO, USA) in 0.1% DMSO, to initiate syncytialisation. As forskolin increases the intracellular cAMP levels, it activates protein kinase A after which syncytialisation and fusion of trophoblasts occurs (Orendi et al. [2010]).
The cells were seeded in 96-well culture plates at a cell density of 1 × 10^4 cells/well and cultured for 24 h at 37 °C in a humidified atmosphere with 5% CO2 to allow for attachment. Subsequently, the cells were exposed to the TKIs and cytostatic drugs in concentrations ranging from 100 pM to 100 µM (triplicate). […] This is a minimum percentage DMSO, but required as cells required co-incubation with forskolin to syncytialise. Crizotinib 100 μM was used as positive control. After attachment, cells were incubated with the compounds for 48 h, after which the medium was removed and the cells were exposed to […] diluted in medium. After 3 h of incubation with MTT, the formazan crystals formed were solubilized in 50 μL DMSO. The absorbance of formazan was measured at 540 nm by a Biorad Multiwell Plate reader.

[2] = tested on: BeWo cells; set-up: method as in Soininen et al. [2015]; conditions: after 4 h of exposure, ref Soininen et al. [2015], read-out: IC50 cell viability; cited from earlier work
[3] = set-up: method as in Berveiller and Mir [2012]; Soininen et al. [2015]; conditions: ref Berveiller and Mir [2012]; Soininen et al. [2015]; cited from earlier work
[4] = tested on: progesterone and estrone release in placental explants; test: Steroid (progesterone, estrone) release in placental explants, LC-MS/MS of culture medium; format: cell-based, human; conditions: placental explants, 1, 10 and 100 µM, after 24 h
Protocol: (§1) Term placentas, obtained from consenting women following uncomplicated pregnancies and delivered vaginally or by caesarean section, were used for all experiments. Approval of the Regional Committee on Research involving Human Subjects was obtained (File 2014-1397). Within 60 min after delivery, 1 cm^3 villous tissue samples were excised at random areas midway between the umbilical cord and distal edge of the placenta. To remove maternal blood, samples were carefully rinsed in sterile Dulbecco’s phosphate-buffered saline supplemented with calcium chloride and magnesium chloride (Sigma-Aldrich, St. Louis, MO, USA) which was kept at 37 °C. The villous tissue was cut into small pieces weighing approximately 5 mg, after which 4–6 pieces of tissue were cultured together in individual wells of a 6-well plate. The explants were cultured in 1.5 ml of RPMI-1640 culture medium (Gibco, USA) with 15% heat-inactivated fetal bovine serum, 1% penicillin streptomycin, 1% gentamicin, and 1% amphotericin B (Life Technologies, USA). Placental explant cultures were kept for 7 days at 37 °C in a humidified gas mixture of 5% CO2 and 95% air. The culture medium was renewed every 24 h.
Treatment with TKIs or cytostatic drugs was started at day four of culture to allow for the syncytiotrophoblasts to regenerate (Siman et al. [2001]). Explants were then incubated for 72 h with 1, 10 or 100 µM of all TKIs or cytostatic drugs mentioned above. […] For cisplatin and carboplatin, culture medium was used as a solvent. Culture medium was replaced every 24 h with new medium containing the original concentration of the drug. Supernatant was collected each day and stored at − 20 °C for hormone quantification.
Progesterone and estrone concentrations in culture medium were determined by LC–MS/MS analysis using an Acquity UPLC (Waters, Milford, MA, USA) equipped with a C18 UPLC column (Acquity UPLC BEH C18, 2.1 × 50 mm, Milford, MA, USA, Waters) coupled to a Xevo TQ-S (Waters) triple quadrupole mass spectrometer. Progesterone-D9 was used as internal standard and calibration curves were made in the matrix. To precipitate proteins, methanol containing the internal standard was added to culture medium samples in a ratio 3:1 (MeOH:medium). Following subsequent centrifugation (13,000g for 3 min), 1 μl of the clear supernatant was injected into the LC–MS to quantify progesterone and estrone. Solvent A consisted of 0.2 mM NH4F in water and solvent B consisted of 0.2 mM NH4F in Acetonitrile:Methanol in a ratio of 75:25%. Separation was performed at a flow rate of 350 µl/min under the following gradient conditions: 0 min 60% eluent A, 3.0 min 0% eluent A, 4 min 0% eluent A, 5 min 60% eluent A. The effluent from the UPLC was passed directly into the electrospray ion source. Positive electrospray ionization was achieved using nitrogen as a desolation gas with ionization voltage at 600 V. The source temperature was set at 500 °C and argon was used as collision gas. The following SRM transitions were used: m/z 315.10 (parent ion) to m/z 69.9 and m/z 108.9 (both product ions) for progesterone, m/z 269.0 (parent ion) to m/z 144.9 and 158.9 (product ions) for estrone, and m/z 324.2 (parent ion) to m/z 99.9 and m/z 112.9 (product ions) for the internal standard d9-progesterone. We also attempted to quantify estradiol and estriol levels in the culture medium of both explants and cells, but these were below the detection limit.
Construction of graphs and data analysis were performed using Graphpad Prism version 8.4.2. MTT conversion and progesterone and estrone release in placental explants were normalized to tissue wet weight. To compare the effects on tissue viability and cell viability, the data were normalized to control conditions and mean differences were tested using an unpaired t test, a one-way ANOVA, or a two-way repeated measures ANOVA. […]

[5] = MTT assay in placental explants (tissue viability); format: cell-based, human; conditions: female, human, term placental villous tissue explants, 72 h exposure
Protocol: as §1
Treatment with TKIs or cytostatic drugs was started at day four of culture to allow for the syncytiotrophoblasts to regenerate (Siman et al. [2001]). Explants were then incubated for 72 h with 1, 10 or 100 µM of all TKIs or cytostatic drugs mentioned above. […] Culture medium was replaced every 24 h with new medium containing the original concentration of the drug. Supernatant was collected each day and stored at − 20 °C for hormone quantification.
To evaluate tissue and cell viability, after 72 h of drug exposure, tissue explants were incubated for 4 h at 37 °C with 1 mM 3-(4,5-dimethylthiazol-2-yl)-[…] (MTT) in RPMI. After incubation, the medium was removed, the tissue in each well was weighed, and the explants were subsequently placed in 500 µL DMSO for 10 min to dissolve the formazan formed. After 10 min, the DMSO was transferred to a 96-well plate and absorbance was measured at 540 nm using a Biorad Multiwell Plate reader.
Construction of graphs and data analysis were performed using Graphpad Prism version 8.4.2. MTT conversion and progesterone and estrone release in placental explants were normalized to tissue wet weight. To compare the effects on tissue viability and cell viability, the data were normalized to control conditions and mean differences were tested using an unpaired t test, a one-way ANOVA, or a two-way repeated measures ANOVA. The change in progesterone release rate as compared to the baseline (at 0 h) was calculated for each well separately, after which data were normalized to control conditions. One-way ANOVA was used to assess effects at the 72 h time point only. The Bonferroni post hoc test was applied to compare treatment conditions with controls. Data are described as mean ± SD in Figs. 2 and 3 and as mean ± SEM in all other figures where comparisons of means between groups were made. The mean and SD or SEM were calculated from all individual results (three experiments performed in duplicate or triplicate wells, n = 6 or n = 9).

SMILES: COc1cccc2c1C(=O)c1c(O)c3c(c(O)c1C2=O)C[C@@](O)(C(=O)CO)C[C@@H]3O[C@H]1C[C@H](N)[C@H](O)[C@H](C)O1 [doxorubicin]
- potency on viability in cells relative to explants (times more potent) ([1]; all cell types (48 h) versus placental explants (72 h)): approximately 10 times
- effect on viability (in words) ([1]; all cell types, 1 µM, 48 h exposure): fully inhibited viability in all cell types
- IC50 [2]: 600 nM
- uptake in ex vivo perfused placental tissue, % of initial maternal concentrations [3]: 38–70%
- progesterone production (in words) [4]: induced progesterone production
- viability at 72 h, 1 µM ([5]; 1 µM, read-out: viability in explants, % of control values): 83 ± 7%
- viability at 72 h, 100 µM ([5]; 100 µM, mean ± SEM, read-out: tissue viability, % of control): 14 ± 2%
